US6989389B2, “Aryl ether substituted imidazoquinolines” (3M Innovative Properties Co., priority 2000, dated 2006)

The compounds below were run on Peripheral blood mononuclear cells (PBMC) (assay: Cytokine Induction in Human Cells (in vitro human blood cell system, IFN and TNF secreted into culture media)). Settings: Homo sapiens, PBMC, lowest concentration found to induce interferon (α), 18 to 24 hours, ELISA, tested 30-0.014 μM, read-out: Lowest Effective Concentration (μM) Interferon.
Type: cell-based
Parameters: key to Lowest Effective Concentration (μM) Tumor Necrosis Factor / Lowest Effective Concentration (μM) Interferon: *: no induction was seen at any of the tested concentrations
Source text: An in vitro human blood cell system is used to assess cytokine induction. Activity is based on the measurement of interferon and tumor necrosis factor (α) (IFN and TNF, respectively) secreted into culture media as described by Testerman et. al. In “Cytokine Induction by the Immunomodulators Imiquimod and S-27609”, Journal of Leukocyte Biology, 58, 365-372 (September, 1995).
Whole blood from healthy human donors is collected by venipuncture into EDTA vacutainer tubes. Peripheral blood mononuclear cells (PBMC) are separated from whole blood by density gradient centrifugation using Histopaque®-1077. Blood is diluted 1:1 with Dulbecco's Phosphate Buffered Saline (DPBS) or Hank's Balanced Salts Solution (HBSS). The PBMC layer is collected and washed twice with DPBS or HBSS and resuspended at 4×10^6 cells/mL in RPMI complete. The PBMC suspension is added to 48 well flat bottom sterile tissue culture plates (Costar, Cambridge, Mass. or Becton Dickinson Labware, Lincoln Park, N.J.) containing an equal volume of RPMI complete media containing test compound.
The compounds are solubilized in dimethyl sulfoxide (DMSO). The DMSO concentration should not exceed a final concentration of 1% for addition to the culture wells. The compounds are generally tested at concentrations ranging from 30-0.014 μM.
The solution of test compound is added at 60 μM to the first well containing RPMI complete and serial 3 fold dilutions are made in the wells. The PBMC suspension is then added to the wells in an equal volume, bringing the test compound concentrations to the desired range (30-0.014 μM). The final concentration of PBMC suspension is 2×10^6 cells/mL. The plates are covered with sterile plastic lids, mixed gently and then incubated for 18 to 24 hours at 37° C. in a 5% carbon dioxide atmosphere.
Following incubation the plates are centrifuged for 10 minutes at 1000 rpm (˜200×g) at 4° C. The cell-free culture supernatant is removed with a sterile polypropylene pipet and transferred to sterile polypropylene tubes. Samples are maintained at −30 to −70° C. until analysis. The samples are analyzed for interferon (α) by ELISA and for tumor necrosis factor (α) by ELISA or IGEN Assay.
Interferon (α) concentration is determined by ELISA using a Human Multi-Species kit from PBL Biomedical Laboratories, New Brunswick, N.J. Results are expressed in pg/mL.
Tumor necrosis factor (α) (TNF) concentration is determined using ELISA kits available from Biosource International, Camarillo, Calif. Alternately, the TNF concentration can be determined by Origen® M-Series Immunoassay and read on an IGEN M-8 analyzer from IGEN International, Gaithersburg, Md. The immunoassay uses a human TNF capture and detection antibody pair from Biosource International, Camarillo, Calif. Results are expressed in pg/mL.
The table below lists the lowest concentration found to induce interferon and the lowest concentration found to induce tumor necrosis factor for each compound.
Work on `Nc1nc2ccccc2c2c1ncn2COCCOCc1ccccc1` [Example 84] yielded a minimal effective concentration of 0.37 µM.
With `Cc1ccc(COCCOCn2cnc3c(N)nc4ccccc4c32)cc1` [Example 85] the minimal effective concentration was 0.37 µM.
`Cc1cccc(COCCOCn2cnc3c(N)nc4ccccc4c32)c1` [Example 86] showed a minimal effective concentration of 0.37 µM.
Work on `N#Cc1ccc(COCCOCn2cnc3c(N)nc4ccccc4c32)cc1` [Example 87] yielded a minimal effective concentration of 1.11 µM.
With `N#Cc1cccc(COCCOCn2cnc3c(N)nc4ccccc4c32)c1` [Example 88] the minimal effective concentration was 0.37 µM.
`CCCCc1nc2c(N)nc3c(c2n1CCOCc1cccc(Cl)c1)CCCC3` [Example 89] showed a minimal effective concentration of 0.37 µM.
In the case of `CCCCc1nc2c(N)nc3c(c2n1CCOCc1ccc(C)cc1)CCCC3` [Example 90], the minimal effective concentration is reported as 0.12 µM.
Compound `CCCCc1nc2c(N)nc3c(c2n1CCOCc1ccc(C(F)(F)F)cc1)CCCC3` [Example 91] has a minimal effective concentration of 0.37 µM.
`CCCCc1nc2c(N)nc3c(c2n1CCOCc1cccc(C(F)(F)F)c1)CCCC3` [Example 92] gave a minimal effective concentration of 3.33 µM.
Work on `CCCCc1nc2c(N)nc3c(c2n1CCOCc1ccc(C#N)cc1)CCCC3` [Example 93] yielded a minimal effective concentration of 0.12 µM.
Work on `CCCCc1nc2c(N)nc3c(c2n1CCOCc1cccc(C#N)c1)CCCC3` [Example 94] yielded a minimal effective concentration of 0.01 µM.
`CCCCc1nc2c(N)nc3c(c2n1CCOCc1ccc(C(C)(C)C)cc1)CCCC3` [Example 95] was tested, and the minimal effective concentration was 1.11 µM.

Same assay, conditions: Homo sapiens, PBMC, lowest concentration found to induce tumor necrosis factor (α), 18 to 24 hours, ELISA or IGEN assay, tested 30-0.014 μM, read-out: Lowest Effective Concentration (μM) Tumor Necrosis Factor
In the case of `CC(C)C(COc1ccccc1[N+](=O)[O-])n1cnc2c(N)nc3ccccc3c21` (stereo not shown) [Example 57], the minimal effective concentration is reported as 30 µM.
In the case of `CC(C)C(COCc1ccc(Cl)c(Cl)c1)n1cnc2c(N)nc3ccccc3c21` (stereo not shown) [Example 62], the minimal effective concentration is reported as 3.33 µM.
`CC(Cn1cnc2c(N)nc3ccccc3c21)OCc1ccc(C(C)(C)C)cc1` (stereo not shown) [Example 67] gave a minimal effective concentration of 30 µM.
Work on `N#Cc1cccc(COCCOCn2cnc3c(N)nc4ccccc4c32)c1` [Example 88] yielded a minimal effective concentration of 30 µM.
`CCCCc1nc2c(N)nc3c(c2n1CCOCc1cccc(Cl)c1)CCCC3` [Example 89] showed a minimal effective concentration of 10 µM.
For `CCCCc1nc2c(N)nc3c(c2n1CCOCc1ccc(C)cc1)CCCC3` [Example 90], the minimal effective concentration was 10 µM.
In the case of `CCCCc1nc2c(N)nc3c(c2n1CCOCc1ccc(C(F)(F)F)cc1)CCCC3` [Example 91], the minimal effective concentration is reported as 10 µM.
In the case of `CCCCc1nc2c(N)nc3c(c2n1CCOCc1cccc(C(F)(F)F)c1)CCCC3` [Example 92], the minimal effective concentration is reported as 3.33 µM.
Work on `CCCCc1nc2c(N)nc3c(c2n1CCOCc1ccc(C#N)cc1)CCCC3` [Example 93] yielded a minimal effective concentration of 10 µM.
`CCCCc1nc2c(N)nc3c(c2n1CCOCc1cccc(C#N)c1)CCCC3` [Example 94] showed a minimal effective concentration of 3.33 µM.

Same assay, conditions: lowest concentration found to induce interferon (α), 18 to 24 hours, ELISA, tested 30-0.014 μM
In the case of `Cc1ccc([N+](=O)[O-])c(OCC(C(C)C)n2cnc3c(N)nc4ccccc4c32)c1` (stereo not shown) [Example 55], the “Lowest Effective Concentration (μM) Interferon” value is reported as “*”.
In the case of `CC(C)C(COc1ccccc1[N+](=O)[O-])n1cnc2c(N)nc3ccccc3c21` (stereo not shown) [Example 57], the “Lowest Effective Concentration (μM) Interferon” value is reported as “*”.
With `CC(C)C(COCc1ccc(Cl)c(Cl)c1)n1cnc2c(N)nc3ccccc3c21` (stereo not shown) [Example 62] the “Lowest Effective Concentration (μM) Interferon” value was “*”.
In the case of `CC(C)C(COCc1cccc(C(F)(F)F)c1)n1cnc2c(N)nc3ccccc3c21` (stereo not shown) [Example 63], the “Lowest Effective Concentration (μM) Interferon” value is reported as “*”.
In the case of `COC(=O)c1ccc(COCC(C(C)C)n2cnc3c(N)nc4ccccc4c32)cc1` (stereo not shown) [Example 66], the “Lowest Effective Concentration (μM) Interferon” value is reported as “*”.
In the case of `CC(Cn1cnc2c(N)nc3ccccc3c21)OCc1ccc(C(C)(C)C)cc1` (stereo not shown) [Example 67], the “Lowest Effective Concentration (μM) Interferon” value is reported as “*”.
In the case of `Nc1nc2ccccc2c2c1ncn2CCCCOCc1ccccc1` [Example 75], the “Lowest Effective Concentration (μM) Interferon” value is reported as “*”.
`Nc1nc2ccccc2c2c1ncn2CCCCOCc1ccc(C(F)(F)F)cc1` [Example 78] was tested, and the “Lowest Effective Concentration (μM) Interferon” value was “*”.
In the case of `Nc1nc2ccccc2c2c1ncn2CC(OCCCCOc1ccccc1)c1ccccc1` (stereo not shown) [Example 79], the “Lowest Effective Concentration (μM) Interferon” value is reported as “*”.
With `CC(n1cnc2c(N)nc3ccccc3c21)C(C)(C)OCc1ccccc1` (stereo not shown) [Example 80] the “Lowest Effective Concentration (μM) Interferon” value was “*”.
In the case of `CCc1nc2c(N)nc3ccccc3c2n1C(CC)COCc1ccccc1` (stereo not shown) [Example 82], the “Lowest Effective Concentration (μM) Interferon” value is reported as “*”.

Same assay, conditions: lowest concentration found to induce tumor necrosis factor (α), 18 to 24 hours, ELISA or IGEN assay, tested 30-0.014 μM
In the case of `Cc1ccc([N+](=O)[O-])c(OCC(C(C)C)n2cnc3c(N)nc4ccccc4c32)c1` (stereo not shown) [Example 55], the “Lowest Effective Concentration (μM) Tumor Necrosis Factor” value is reported as “*”.
`CC(C)C(COCc1cccc(C(F)(F)F)c1)n1cnc2c(N)nc3ccccc3c21` (stereo not shown) [Example 63] was tested, and the “Lowest Effective Concentration (μM) Tumor Necrosis Factor” value was “*”.
With `COC(=O)c1ccc(COCC(C(C)C)n2cnc3c(N)nc4ccccc4c32)cc1` (stereo not shown) [Example 66] the “Lowest Effective Concentration (μM) Tumor Necrosis Factor” value was “*”.
For `Nc1nc2ccccc2c2c1ncn2CCCCOCc1ccccc1` [Example 75], the “Lowest Effective Concentration (μM) Tumor Necrosis Factor” value was “*”.
`Nc1nc2ccccc2c2c1ncn2CCCCOCc1ccc(C(F)(F)F)cc1` [Example 78] was tested, and the “Lowest Effective Concentration (μM) Tumor Necrosis Factor” value was “*”.
`Nc1nc2ccccc2c2c1ncn2CC(OCCCCOc1ccccc1)c1ccccc1` (stereo not shown) [Example 79] was tested, and the “Lowest Effective Concentration (μM) Tumor Necrosis Factor” value was “*”.
For `CC(n1cnc2c(N)nc3ccccc3c21)C(C)(C)OCc1ccccc1` (stereo not shown) [Example 80], the “Lowest Effective Concentration (μM) Tumor Necrosis Factor” value was “*”.
For `CCc1nc2c(N)nc3ccccc3c2n1C(CC)COCc1ccccc1` (stereo not shown) [Example 82], the “Lowest Effective Concentration (μM) Tumor Necrosis Factor” value was “*”.
For `Nc1nc2ccccc2c2c1ncn2COCCOCc1ccccc1` [Example 84], the “Lowest Effective Concentration (μM) Tumor Necrosis Factor” value was “*”.
For `Cc1ccc(COCCOCn2cnc3c(N)nc4ccccc4c32)cc1` [Example 85], the “Lowest Effective Concentration (μM) Tumor Necrosis Factor” value was “*”.
In the case of `Cc1cccc(COCCOCn2cnc3c(N)nc4ccccc4c32)c1` [Example 86], the “Lowest Effective Concentration (μM) Tumor Necrosis Factor” value is reported as “*”.
In the case of `N#Cc1ccc(COCCOCn2cnc3c(N)nc4ccccc4c32)cc1` [Example 87], the “Lowest Effective Concentration (μM) Tumor Necrosis Factor” value is reported as “*”.
`CCCCc1nc2c(N)nc3c(c2n1CCOCc1ccc(C(C)(C)C)cc1)CCCC3` [Example 95] was tested, and the “Lowest Effective Concentration (μM) Tumor Necrosis Factor” value was “*”.
